Assay results taken from patent publication US12116388B2, “Amylin receptor agonists” (Novo Nordisk A/S, priority 2022, dated 2024).
Starred links: 1 amine or outer side, 2 acyl side, 3 side chain; linkers in the order of their positions; H or OH if unused. Positions of bridges follow the written chain, without caps; N, C: chain ends. Residues, ends and D or L forms follow the SMILES beside them. *: point of attachment. C20 diacid = O=C(O)CCCCCCCCCCCCCCCCCCC(=O)*; C18 diacid = O=C(O)CCCCCCCCCCCCCCCCC(=O)*; γGlu = O=C(O)[C@H](CCC(=O)[*:2])N[*:1]

Columns and labels:
[1] = Oral pharmacokinetic profiles in Beagle dogs (SNAC tablets); type: in vivo; conditions: oral tablet: 3 mg compound, 300 mg SNAC, 7.7 mg magnesium stearate
Experimental: To be able to evaluate oral exposure following tablet dosing, tablet compositions comprising the test substance and SNAC (sodium N-(8-(2-hydroxybenzoyl)amino)caprylate) were prepared by mixing test substance with roller compacted SNAC and magnesium stearate as, e.g., described in WO 2019/149880.
This assay was performed to measure the oral bioavailability of a compound. The assay determined the exposure of test compound following oral administration in Beagle dogs as described by relevant pharmacokinetic parameters and plasma concentration curves.
Preparation of tablets for oral administration: tablets containing test compound used for the assay described herein were immediate release SNAC-based tablets. The test compound was spray-dried as neutral sodium salt (pH 7-8). Dry granulation was carried out by roller compaction on a Gerteis MINI-PACTOR. Tablets containing 3 mg test compound, 300 mg sodium N-(8-(2-hydroxybenzoyl)amino)caprylate (SNAC) and 7.7 mg magnesium stearate were produced on at Kilian Style One using 7.2×12 mm punches.
Determination of the absorption following oral administration: eight (8) male Beagle dogs, 1 to 8 years of age and weighing approximately 10-15 kg at the start of the studies, were used. The dogs were group-housed in pens (12 hours light:12 hours dark), and fed individually and restrictedly once daily with Royal Canin Medium Adult dog (Royal Canin Products, China Branch, or Brogaarden A/S, Denmark). Exercise and group social were permitted daily, whenever possible. The dogs were used for repeated pharmacokinetic studies with a suitable wash-out period between successive dosing. An appropriate acclimatisation period was given prior to initiation of the first pharmacokinetic study. All handling, dosing and blood sampling of the animals were performed by trained and skilled staff. Before the studies the dogs were fasted overnight and from 0 to 4 h after dosing. Besides, the dogs were restricted to water 1 hour before dosing until 4 hours after dosing, but otherwise had ad libitum access to water during the whole period.
Tablets containing the test compound were administered in the following manner: 10 min prior to tablet administration the dogs were dosed subcutaneously with approximately 3.2 nmol/kg of glucagon. The tablets were placed in the back of the mouth of the dog to prevent chewing. The mouth was then closed, and 10 mL of tap water was given by a syringe to facilitate swallowing of the tablet. Blood was sampled at predefined time points for up till 288 hours after dosing to adequately cover the full plasma concentration-time absorption profile of the compound. For each blood sampling time point approximately 1.2 mL of whole blood was collected in a 1.5 mL EDTA coated tube, and the tube was gently turned to allowing mixing of the sample with the EDTA. Then, the blood samples were kept on ice until centrifugation (4 min, 4° C., 4000 rpm). Plasma was pipetted into Micronic tubes on dry ice and kept at −20° C. until analysis. Blood samples were taken as appropriate, for example from a venflon in the cephalic vein in the front leg for the first 2 hours and then with syringe from the jugular vein for the rest of the time points (the first few drops were allowed to drain from the venflon to avoid heparin saline from the venflon in the sample).
Bioanalysis was carried out as follows: plasma concentrations of test compound were assayed by plasma protein precipitation and analysed by liquid chromatography-mass spectrometry (LC-MS). Calibrators were prepared by spiking blank dog plasma with analytes to reach the final concentrations in the range typically from 0.5 to 200 nM. Calibrators, plasma blanks or study samples were prepared for LC-MS by protein precipitation by adding 3 volumes of ethanol followed by centrifugation at 4000 rpm at 4° C. for 1 h. The supernatant was diluted with 2 volumes of Milli-Q water containing 0.1% formic acid before injection on the LC-MS system. […]

[2] = biological target: T1, human calcitonin receptor (hCTR) (Homo sapiens, UniProt P30988); test: Human calcitonin receptor (hCTR) in vitro potency assay, CRE-luciferase reporter in BHK cells; type: cell-based; conditions: BHK hCTR/CRE-Luc cells, 3 hours incubation, assay buffer with 1% ovalbumin; read-out: hCalcR potency, EC50
T1 construct: host or cells: BHK (Baby Hamster Kidney), Hollex-1 cell line
T1 sequence (P30988 25-474): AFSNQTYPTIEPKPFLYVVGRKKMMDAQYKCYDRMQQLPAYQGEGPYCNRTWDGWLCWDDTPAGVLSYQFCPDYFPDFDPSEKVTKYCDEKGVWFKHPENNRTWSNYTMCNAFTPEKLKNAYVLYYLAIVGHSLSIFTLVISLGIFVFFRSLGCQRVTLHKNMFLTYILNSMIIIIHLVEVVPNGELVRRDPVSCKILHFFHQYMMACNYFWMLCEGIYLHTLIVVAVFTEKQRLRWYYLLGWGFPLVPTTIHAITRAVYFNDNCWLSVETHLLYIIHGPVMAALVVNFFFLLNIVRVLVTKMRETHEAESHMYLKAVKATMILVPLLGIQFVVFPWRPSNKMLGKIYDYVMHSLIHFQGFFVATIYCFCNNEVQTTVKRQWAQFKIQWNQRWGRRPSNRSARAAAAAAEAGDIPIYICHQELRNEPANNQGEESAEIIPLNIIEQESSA
Procedure, shortened: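 Luciferase signal from a CRE reporter served as the cAMP read-out after 3 h, 37 °C exposure to compound. Cells were stably transfected BHK expressing hCTR, and the buffer was phenol-red-free DMEM with 10 mM HEPES and 1% ovalbumin. Compounds were tested as 7-point, 7-fold dilutions, often from about 10 nM.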

[3] = biological target: T2, human amylin receptor (hAMYR3) (Homo sapiens, UniProt O60896+P30988); test: Human amylin receptor (hAMYR3) in vitro potency assay, CRE-luciferase reporter in BHK cells; type: cell-based; conditions: BHK hAMYR3/CRE-Luc cells, 3 hours incubation, assay buffer with 1% ovalbumin
T2 construct: host or cells: BHK (Baby Hamster Kidney), Hollex-1 cell line further transfected with RAMP3
Procedure, shortened: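 Luminescence from a CRE-driven luciferase reporter reflects cAMP-mediated receptor activation. Peptides were serially diluted (7 concentrations, 7-fold steps, typically starting near 10 nM) in buffer with 1% ovalbumin and applied for 3 h at 37 °C to BHK cells co-expressing calcitonin receptor (a) and RAMP3.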

T2 sequence (O60896 24-148, one chain of several): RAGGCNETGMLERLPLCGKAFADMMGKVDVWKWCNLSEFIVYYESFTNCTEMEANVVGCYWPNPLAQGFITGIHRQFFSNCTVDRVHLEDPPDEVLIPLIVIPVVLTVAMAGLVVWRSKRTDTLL

In the case of `CC[C@H](C)[C@H](NC(=O)[C@@H]1CCCN1C(=O)CNC(=O)[C@H](Cc1ccccc1)NC(=O)[C@H](CC(N)=O)NC(=O)[C@H](CC(N)=O)NC(=O)[C@H](CO)NC(=O)[C@H](CO)NC(=O)[C@H](Cc1c[nH]cn1)NC(=O)[C@H](CCCNC(=N)N)NC(=O)[C@H](CC(C)C)NC(=O)[C@H](Cc1ccccc1)NC(=O)[C@H](CCC(=O)O)NC(=O)[C@H](C)NC(=O)[C@H](CC(C)C)NC(=O)[C@H](CCCNC(=N)N)NC(=O)[C@H](CCC(N)=O)NC(=O)[C@@H](NC(=O)[C@H](C)NC(=O)[C@@H]1CSSC[C@H](NC(=O)[C@H](CCCCN)NC(=O)CC[C@H](NC(=O)CCCCCCCCCCCCCCCCCCC(=O)O)C(=O)O)C(=O)N[C@@H](CC(N)=O)C(=O)N[C@@H]([C@@H](C)O)C(=O)N[C@@H](C)C(=O)N[C@@H]([C@@H](C)O)C(=O)N1)[C@@H](C)O)C(=O)N[C@@H](CC(C)C)C(=O)N1CCC[C@H]1C(=O)N1CCC[C@H]1C(=O)N[C@H](C(=O)N[C@@H](CCC(N)=O)C(=O)N[C@H](C(=O)NCC(=O)N[C@@H](CO)C(=O)N[C@@H](CC(N)=O)C(=O)N[C@H](C(=O)N1CCC[C@H]1C(N)=O)[C@@H](C)O)C(C)C)[C@@H](C)O` [Compound 1, N^1Alpha-[(4S)-4-carboxy-4-(19-carboxynonadecanoylamino)butanoyl]-[Glu14,Arg17,Pro25,Pro28,Pro29,Gln31,Pro37]-human amylin, reference compound] ({C20 diacid-γGlu}-KCNTATCATQRLAEFLRHSSNNFGPILPPTQVGSNTP-NH2; disulfide 2-7), the “Cmax/D” value [1] is reported as 0.057 kg/L.

In the case of `CC[C@H](C)[C@H](NC(=O)[C@@H]1CCCN1C(=O)CNC(=O)[C@H](Cc1ccccc1)NC(=O)[C@H](CC(N)=O)NC(=O)[C@H](CC(=O)O)NC(=O)[C@H](CO)NC(=O)[C@H](CO)NC(=O)[C@H](Cc1c[nH]cn1)NC(=O)[C@H](Cc1c[nH]cn1)NC(=O)[C@H](CC(C)C)NC(=O)[C@H](Cc1ccccc1)NC(=O)[C@H](CCC(=O)O)NC(=O)[C@H](C)NC(=O)[C@H](CC(C)C)NC(=O)[C@H](CCCNC(=N)N)NC(=O)[C@H](C)NC(=O)[C@@H](NC(=O)[C@H](CCC(N)=O)NC(=O)[C@H](C)NC(=O)[C@@H](NC(=O)[C@H](CO)NC(=O)[C@H](CC(C)C)NC(=O)[C@H](Cc1c[nH]cn1)NC(=O)[C@H](CO)NC(=O)[C@H](C)NC(=O)CC[C@H](NC(=O)CCCCCCCCCCCCCCCCCCC(=O)O)C(=O)O)[C@@H](C)O)[C@@H](C)O)C(=O)N[C@@H](CC(C)C)C(=O)N1CCC[C@H]1C(=O)N1CCC[C@H]1C(=O)N[C@H](C(=O)N[C@@H](CC(=O)O)C(=O)N[C@H](C(=O)NCC(=O)N[C@@H](CO)C(=O)N[C@@H](CC(N)=O)C(=O)N[C@H](C(=O)N1CCC[C@H]1C(N)=O)[C@@H](C)O)C(C)C)[C@@H](C)O` [Compound 2, N^1-[(4S)-4-carboxy-4-(19-carboxynonadecanoylamino)butanoyl]-[Ala1,Ser2,His3,Leu4,Ser5,Ala7,Gln8,Ala10,Glu14,His17,Asp21,Pro25,Pro28,Pro29,Asp31,Pro37]-human amylin] ({C20 diacid-γGlu}-ASHLSTAQTARLAEFLHHSSDNFGPILPPTDVGSNTP-NH2), the EC50 [2] is reported as 1.31 pM, the half-life ([1]; male, dog, plasma, read-out: T½ (converted)) is reported as 6.08 days and the “AUC/D” value [1] is reported as 14.06 kg·h/L. The “Cmax/D” value [1] was 0.15 kg/L.

`CC[C@H](C)[C@H](NC(=O)[C@@H]1CCCN1C(=O)CNC(=O)[C@H](Cc1ccccc1)NC(=O)[C@H](Cc1c[nH]cn1)NC(=O)[C@H](Cc1c[nH]cn1)NC(=O)[C@H](CC(C)C)NC(=O)[C@H](Cc1ccccc1)NC(=O)[C@H](CCC(=O)O)NC(=O)[C@H](C)NC(=O)[C@H](CC(C)C)NC(=O)[C@H](CCCNC(=N)N)NC(=O)[C@H](C)NC(=O)[C@@H](NC(=O)[C@H](CCC(N)=O)NC(=O)[C@H](C)NC(=O)[C@@H](NC(=O)[C@H](CO)NC(=O)[C@H](CC(C)C)NC(=O)[C@H](Cc1c[nH]cn1)NC(=O)[C@H](CO)NC(=O)[C@H](C)NC(=O)CC[C@H](NC(=O)CCCCCCCCCCCCCCCCC(=O)O)C(=O)O)[C@@H](C)O)[C@@H](C)O)C(=O)N[C@@H](CC(C)C)C(=O)N1CCC[C@H]1C(=O)N1CCC[C@H]1C(=O)N[C@H](C(=O)N[C@@H](CC(=O)O)C(=O)N[C@H](C(=O)NCC(=O)N[C@@H](CO)C(=O)N[C@@H](CCC(=O)O)C(=O)N[C@H](C(=O)N1CCC[C@H]1C(N)=O)[C@@H](C)O)C(C)C)[C@@H](C)O` [Compound 43, N^1-[(4S)-4-carboxy-4-(17-carboxyheptadecanoylamino)butanoyl]-[Ala1,Ser2,His3,Leu4,Ser5,Ala7,Gln8,Ala10,Glu14,His17,Pro25,Pro28,Pro29,Asp31,Glu35,Pro37],des-(19-22)-human amylin] ({C18 diacid-γGlu}-ASHLSTAQTARLAEFLHHFGPILPPTDVGSETP-NH2) gave an EC50 [3] of 1.06 pM and an EC50 [2] of 1.76 pM.

Work on `CC[C@H](C)[C@H](NC(=O)[C@@H]1CCCN1C(=O)CNC(=O)[C@H](Cc1ccccc1)NC(=O)[C@H](CC(N)=O)NC(=O)[C@H](CC(N)=O)NC(=O)[C@H](CO)NC(=O)[C@H](CO)NC(=O)[C@H](Cc1c[nH]cn1)NC(=O)[C@H](CCCNC(=N)N)NC(=O)[C@H](CC(C)C)NC(=O)[C@H](Cc1ccccc1)NC(=O)[C@H](CCC(=O)O)NC(=O)[C@H](C)NC(=O)[C@H](CC(C)C)NC(=O)[C@H](CCCNC(=N)N)NC(=O)[C@H](CCC(N)=O)NC(=O)[C@@H](NC(=O)[C@H](C)NC(=O)[C@@H]1CSSC[C@H](NC(=O)[C@H](CCCCN)NC(=O)CC[C@H](NC(=O)CCCCCCCCCCCCCCCCCCC(=O)O)C(=O)O)C(=O)N[C@@H](CC(N)=O)C(=O)N[C@@H]([C@@H](C)O)C(=O)N[C@@H](C)C(=O)N[C@@H]([C@@H](C)O)C(=O)N1)[C@@H](C)O)C(=O)N[C@@H](CC(C)C)C(=O)N1CCC[C@H]1C(=O)N1CCC[C@H]1C(=O)N[C@H](C(=O)N[C@@H](CC(N)=O)C(=O)N[C@H](C(=O)NCC(=O)N[C@@H](CO)C(=O)N[C@@H](CC(N)=O)C(=O)N[C@H](C(=O)N1CCC[C@H]1C(N)=O)[C@@H](C)O)C(C)C)[C@@H](C)O` [cagrilintide, reference compound] yielded an EC50 [3] of 1.58 pM and an EC50 [2] of 2.53 pM.
